Key:
U87MG glioma cells = experiment: Quantitative RT-PCR gene expression, U87MG; format: cell-based, human
Protocol: (§1) Quantitative RT-PCR analysis of antioxidant enzymes (SOD and CAT), oxidative stress marker (Nrf-2), and apoptosis markers (BCL2 and Caspase-9). Total RNA from all experimental groups was isolated using RNA Express reagent (HiMedia, India) and the respective cDNAs were synthesized using a Hi-c-DNA Synthesis Kit (HiMedia, India). Quantitative RT-PCR was carried out using a CFX 96 thermocycler (Bio-Rad, Hercules, CA) and TB Green Premix Ex Taq 1 (Takara Bio, Otsu, Japan) to detect mRNA. Independent experiments were conducted in triplicate. The cycle threshold (Ct), representing a positive PCR result, is defined as the cycle number at which a sample's fluorescence intensity crossed the threshold automatically determined by the CFX 96.
(§2) The relative changes in gene expression were calculated with the 2^−ΔΔCt method, wherein ΔΔCt=(Cttarget gene−Ctβ-actin) sample−([…]) calibrator.
(§3) The qPCR analyses were performed to measure the expression levels of genes associated with anti-Warburg effect. The total RNA was extracted from the cell lysates and brain tissues of all the experimental groups using TRIZOL reagent (Takara Bio, Shiga, Japan). Quantitative RT-PCR was carried out using a CFX96 Real Time PCR Detection System (Bio-Rad, California, USA) and TB Green Premix Ex Taq I (Takara Bio, Shiga, Japan) to detect messenger ribonucleic acid (mRNA).
(§4) Independent experiments were conducted in triplicate. The relative changes in gene expression were calculated with the 2^−ΔΔCt method, where ΔΔCt=Sample (Cttarget gene−Ctβ-actin)−Calibrator (Cttarget gene−Ctβ-actin).

[1] = tested on: intracellular ROS in U87MG cells; experiment: ROS activity by DCF-DA, U87MG; format: cell-based, human; settings: IC50 concentrations, vs control
Protocol: Determination of ROS activity by DCF-DA. U87MG and C6 cells were seeded at 5×10^3 cells/well in 96 well plates. […] After the treatment period, monolayer cells were stained with DCF-DA stain, and the absorbance was read at 530 nm spectrophotometrically (Molecular Devices Spectra-Max M5, USA). This method is commonly used in ROS investigations and is based on the application of H2DCFDA (acetylated form of DCF), which is consecutively deacetylated inside the cells by intracellular esterase.

C6 rat glioma cell line = experiment: MTT cell viability assay, C6; format: cell-based; settings: for cell viability / anti-proliferative effect (MTT), in words / IC50: C6, 24 hours; for IC50: Rattus norvegicus, individual drug, mean ± SD, no unit in table, test concentrations given in μM, read-out: Inhibitory Concentration at 50% (IC50) C6 Cells
Protocol: Cell lines and culture conditions. A human glioma cell line, U87MG, a rat glioma cell line, C6, and normal HEK293T (Human Embryonic Kidney) cells were obtained from National Centre for Cell Science (NCCS), Pune, India. The cells were sub-cultured in Dulbecco's Modified Eagle's Medium (DMEM) supplemented with 10% FBS at 5% CO2 and 37° C. At 85% confluence, the cells were harvested using 0.25% trypsin and seeded in 25 cm^2 flasks, 96 well, and 6-well plates, according to the experiment being performed. The cells were allowed to attach 70% to the surface prior to treatment. A stock solution of all the drugs (10 mg/ml) was made in a vehicle and diluted to the required concentrations. Suspensions were aspirated 10 times before treatment. Cells treated with vehicle control were used as a control.
Cell viability assay. U87MG and C6 cells (5×10^3 cells/ml) were seeded in 96-well plates and exposed to different individual-drug treated groups with varying concentrations (0, 10, 40, 80, 120, and 160 μM) for a period of 24 hours, whereas HEK293T cells (5×10^3 cells/ml) were seeded at the inhibitory concentration (IC) at 50% of drugs, either alone or in combination. The individual-treated groups include Group I: untreated control glioma cells; Group II: TMZ-treated glioma cells; Group III: MET-treated glioma cells; and Group IV: EGCG-treated glioma cells.
After a 24 hour treatment period, the cells were allowed to react with MTT for 4 hours in dark at 37° C. At the end of the incubation period, the dark purple formazan crystals formed were solubilized with DMSO and the absorbance was measured spectrophotometrically at 595 nm (Molecular Devices Spectra-Max M5, USA). The experiments were repeated at least three times. To determine the cell viability, the percentage of viability was calculated as follows:
% viability=[(Optical density {OD} of treated cells−OD of Blank)/(OD of control−OD of blank)]×100.
Calculation of IC50 value. The IC50 of a drug was determined using y=m(x)+c equation (where: ‘y’ & ‘x’ are the respective coordinates of y & x-axis, ‘m’ is the slope and ‘c’ is the constant) derived from the trendlines of each scattered plots MMT assay. […] The IC50 and IC25 were also calculated for the dual combinations. The IC50 for the triple combination was calculated by keeping the IC25 of the dual-combination constant, and the third drug was used in varying concentrations (0, 10, 40, 80, 120, and 160 μM) (Table 1).
Combination index of drugs. According to the Chou-Talalay method, The statistical Combination Index (CI) of the drugs was performed according to the Chou-Talay method (Ma et al, Stem Cell Reports, 2017 9(6):1948-1960) to determine whether various drug combinations were synergistic, additive, or antagonistic, as shown in Table 1. This was performed for Groups V-IX using the following formula:
Combination index (CI) of Drugs 1 & 2=(IC50 of drug-1 in combination/IC50 of drug-1 individually)+(IC50 of drug-2 in combination/IC50 of drug-2 individually).

C6 glioma cells = experiment: Quantitative RT-PCR gene expression, C6; format: cell-based, rat
Protocol: as §1, §2, §3, §4

[2] = tested on: human breast cancer (MDA-MB-453) cells; experiment: MTT cell viability assay, MDA-MB-453; format: cell-based; settings: 24 hours
Protocol: Cell lines and culture conditions: A human breast cancer cell line MDA-MB-453 and human bone cancer cell line SaoS2 were obtained from National Centre for Cell Science (NCCS), Pune, India. The MDA-MB-453 cells were sub-cultured in Dulbecco's Modified Eagle's Medium (DMEM) supplemented with 10% FBS at 5% CO2 and 37° C. The SaoS2 cells were sub-cultured in McCoy's 5A media supplemented with 10% FBS at 5% CO2 and 37° C. […] The cells were allowed to attach 70% to the surface prior to treatment. […] Suspensions were aspirated 10 times before treatment. Cells treated with vehicle control were used as a control. Cell viability assay: MDA-MB-453 and SaoS2 cells (5×10^3 cells/ml) were seeded in 96-well plates and exposed to different individual-drug treated groups with varying concentrations (0, 20, 40, 60, 80, 100, 120, 140, 160, 180 and 200 μM) for a period of 24 hours.

Row | Structure (SMILES) | mRNA expression levels of BCL2 (U87MG glioma cells) | mRNA expression levels of Caspase-9 (U87MG glioma cells) | mRNA transcript levels of Nrf-2 (U87MG glioma cells) | mRNA transcripts of the antioxidant genes (SOD and CAT) (U87MG glioma cells) | intracellular ROS levels (DCF-DA fluorescence intensity) [1] | cell viability / anti-proliferative effect (MTT), in words (C6 rat glioma cell line) | cell viability / anti-proliferative effect (MTT), in words (C6 rat glioma cell line; listed as ECGC) | IC50 (C6 rat glioma cell line) | mRNA expression levels of BCL2 (C6 glioma cells) | mRNA expression levels of Caspase-9 (C6 glioma cells) | mRNA transcript levels of Nrf-2 (C6 glioma cells) | mRNA transcripts of the antioxidant genes (SOD and CAT) (C6 glioma cells) | cell viability (MTT), in words [2] | IC25 C6 (C6 rat glioma cell line; as used in the triple combination for CI)
1 | O=C(O[C@@H]1Cc2c(O)cc(O)cc2O[C@@H]1c1cc(O)c(O)c(O)c1)c1cc(O)c(O)c(O)c1 [EGCG, [(2R,3R)-5,7-dihydroxy-2-(3,4,5-trihydroxyphenyl)-3,4-dihydro-2H-chromen-3-yl] 3,4,5-trihydroxybenzoate] | not found to be statistically significant | not found to be statistically significant | did not have any significant effect | significant up-regulation | increased significantly | reduction in cell viability in a dose-dependent fashion | did not result in significant inhibitory effects | 96 ± 1.76 µM | not found to be statistically significant | not found to be statistically significant | did not have any significant effect | significant up-regulation | reduction in cell viability in a dose-dependent fashion | –
2 | CN(C)C(=N)N=C(N)N.Cl [MET, 3-(diaminomethylidene)-1,1-dimethylguanidine; hydrochloride] | not found to be statistically significant | not found to be statistically significant | did not have any significant effect | – | did not show much effect on ROS levels | reduction in cell viability in a dose-dependent fashion | – | 77 ± 1.42 µM | not found to be statistically significant | not found to be statistically significant | did not have any significant effect | – | reduction in cell viability in a dose-dependent fashion | 38.40 µM

— patent publication US20250275938A1, “COMPOSITIONS AND METHODS FOR TREATMENT OF CANCER” (SCIROSBIO (FZC), priority 2022, published 2025)
